{"source": "paper PMC4896643", "about": "(Science signaling, 2016)", "key": {"[1]": {"tested_on": "primary bovine aortic endothelial cells (BAECs)", "assay": "eNOS activation", "type": "cell-based", "conditions": "for eNOS / NOS activity: 15 min"}, "ERα-SRC3 interaction": {"tested_on": "ERα-SRC3 interaction", "assay": "tr-FRET assay of SRC3 binding to ERα", "type": "biochemical"}, "[2]": {"tested_on": "ovariectomized C57BL/6 mice", "assay": "gene regulation and signaling pathway activation in tissues in vivo"}, "MCF-7 cells [3]": {"tested_on": "MCF-7 cells", "assay": "MCF-7 cell proliferation", "conditions": "6 days, WST assay"}, "MCF-7 cells [4]": {"tested_on": "MCF-7 cells", "assay": "RNA-Seq transcriptional profiling", "conditions": "for number of genes regulated: 10 nM E2 or 1 μM PaPE-1, P<0.05, fold change >2"}, "ERα-knockout mice": {"tested_on": "ERα-knockout mice", "assay": "effects in ERα-knockout", "conditions": "ERKO mice"}, "MCF-7 cells [5]": {"tested_on": "MCF-7 cells", "assay": "ChIP-Seq of ERα, ERK2, pSer5 RNA Pol II"}, "[6]": {"tested_on": "ovariectomized C57BL/6 mice", "assay": "metabolic effects in ovariectomized mice"}, "MCF-7 cells [7]": {"tested_on": "MCF-7 cells", "assay": "Western blot of signaling pathway activation in MCF-7 cells"}, "[8]": {"tested_on": "ovariectomized female mice", "assay": "reproductive tissue and thymus effects in ovariectomized mice"}, "ovariectomized mice": {"tested_on": "ovariectomized mice", "assay": "carotid artery reendothelialization after perivascular electric injury"}}, "note": "Entries after “also recorded” stand apart in the source; their conditions may differ."}
{"molecule": "CC(=O)NCCNC(=O)CCC(C)(c1ccc(O)cc1)c1ccc(O)cc1", "note": "[PaPE-4]", "values": [{"measurement": "eNOS / NOS activity", "setting": "[1]", "value": "increased NOS activity"}]}
{"molecule": "CC/C(=C(\\c1ccc(O)cc1)c1ccc(OCCN(C)C)cc1)c1ccccc1", "note": "[OH-Tam, trans-hydroxytamoxifen]", "values": [{"measurement": "reversal of the ER-SRC3 interaction promoted by E2", "setting": "ERα-SRC3 interaction", "value": "reversed the ER-SRC3 interaction"}]}
{"molecule": "C[C@]12CC[C@@H]3c4ccc(O)cc4CC[C@H]3[C@@H]1CC[C@@H]2O", "note": "[E2, estradiol]", "values": [{"measurement": "SRC3 binding to ERα-ligand complex", "setting": "ERα-SRC3 interaction; coactivator titration", "value": "bound with high affinity"}, {"measurement": "eNOS / NOS activity", "setting": "[1]", "value": "activated by E2"}, {"measurement": "eNOS / NOS stimulation with ICI", "setting": "[1]; plus antiestrogen ICI 182,780", "value": "fully attenuated by ICI"}, {"measurement": "mTOR signaling (S6 phosphorylation) in liver and skeletal muscle", "setting": "[2]; injected, 2h", "value": "effective in inducing mTOR signaling"}, {"measurement": "signaling pathway stimulation in reproductive tissues (uterus and mammary gland)", "setting": "[2]; injected, 2h", "value": "stimulated reproductive tissues"}, {"measurement": "gene expression changes in uterus", "setting": "[2]; pellets, qPCR", "value": "induced gene expression changes in uterus"}, {"measurement": "proliferation of MCF-7 cells", "setting": "MCF-7 cells [3]", "value": "potently stimulated proliferation"}, {"measurement": "regulated genes blocked by MAPK inhibitor AZD6244", "setting": "MCF-7 cells [4]; 1 μM AZD6244 pretreatment, 4 h", "value": "~ 23%"}, {"measurement": "regulated genes blocked by mTOR pathway inhibitor PP242", "setting": "MCF-7 cells [4]; 1 μM PP242 pretreatment, 4 h", "value": 40, "unit": "%"}, {"measurement": "number of genes regulated", "setting": "MCF-7 cells [4]; 4h", "value": "~1500", "unit": "genes"}, {"measurement": "number of genes regulated", "setting": "MCF-7 cells [4]; 24h", "value": "about 3000 genes"}, {"measurement": "blood triglycerides", "setting": "ERα-knockout mice", "value": "did not decrease blood triglycerides"}, {"measurement": "suppression of liver FASN and SREBP1c gene expression", "setting": "ERα-knockout mice", "value": "lost in ERKO mice"}, {"measurement": "uterine growth", "setting": "ERα-knockout mice", "value": "did not stimulate uterine growth"}, {"measurement": "ability to diminish body weight gain after ovariectomy", "setting": "ERα-knockout mice; 3 weeks", "value": "lost"}, {"measurement": "ERK2 recruitment", "setting": "MCF-7 cells [5]", "value": "caused recruitment of ERK2 to enhancer regions together with ERα"}, {"measurement": "ERα recruitment to chromatin", "setting": "MCF-7 cells [5]", "value": "recruited to chromatin"}, {"measurement": "food consumption", "setting": "[6]; 3 weeks", "value": "early drop in food intake"}, {"measurement": "liver FASN and SREBP-1c gene expression", "setting": "[6]; 3 weeks", "value": "reduced"}, {"measurement": "body weight gain after ovariectomy", "setting": "[6]; 3 weeks, pellets", "value": "suppressed; also recorded: reduced body weight gain"}, {"measurement": "weight of fat depots", "setting": "[6]; 3 weeks, perigonadal, perirenal, subcutaneous, mesenteric", "value": "decreased the weight of all of the fat depots examined"}, {"measurement": "fat mass (EchoMRI)", "setting": "[6]; end of 3 weeks", "value": "greatly reduced fat mass; also recorded: reduced fat mass more markedly"}, {"measurement": "lean mass and water mass (EchoMRI)", "setting": "[6]; end of 3 weeks", "value": "increased only by E2; also recorded: did increase lean mass and water mass"}, {"measurement": "triglyceride concentrations in blood", "setting": "[6]; end of 3 weeks", "value": "decreased triglyceride concentrations in blood"}, {"measurement": "hepatocyte lipid content (Oil Red O)", "setting": "[6]; liver, 3 weeks", "value": "decreased hepatocyte lipid content"}, {"measurement": "phosphorylation of Ser118 in ERα", "setting": "MCF-7 cells [7]", "value": "observed"}, {"measurement": "mammary gland adiposity", "setting": "[8]", "value": "reduced the mammary gland adiposity"}, {"measurement": "mammary gland ductal morphology", "setting": "[8]", "value": "elicited marked ductal growth"}, {"measurement": "thymus size", "setting": "[8]", "value": "induced marked involution of the thymus"}, {"measurement": "uterine weight", "setting": "[8]", "value": "effective in increasing growth of the uterus"}, {"measurement": "uterine stimulation with ICI", "setting": "ovariectomized mice; plus antiestrogen ICI", "value": "blocked uterine stimulation"}, {"measurement": "endothelial repair response with ICI 182,780", "setting": "ovariectomized mice; plus antiestrogen ICI 182,780", "value": "fully prevented"}, {"measurement": "uterine weight", "setting": "ovariectomized mice; same animals as reendothelialization", "value": "greatly elevated by E2"}]}
